ChEMBL document CHEMBL5723584 (2023)

Experiments:
[1] = biological target: Homeodomain-interacting protein kinase 3 (Homo sapiens) (UniProt Q9H422); assay: activity of HIPK3(h) at 1.0 µM in the Eurofins Kinase panel; settings: Compound concentration 1.0 uM
[2] = biological target: Myosin light chain kinase (Homo sapiens) (UniProt Q32MK0); assay: activity of MLCK(h) at 1.0 µM in the Eurofins Kinase panel; settings: Compound concentration 1.0 uM
[3] = biological target: Serine/threonine-protein kinase 10 (Homo sapiens) (UniProt O94804); assay: activity of LOK(h) at 1.0 µM in the Eurofins Kinase panel; settings: Compound concentration 1.0 uM
Aurora kinase B = Aurora kinase B (Homo sapiens, UniProt Q96GD4); assay: activity of Aurora-B(h) at 1.0 µM in the Eurofins Kinase panel; settings: Compound concentration 1.0 uM
[4] = biological target: NUAK family SNF1-like kinase 1 (Homo sapiens) (UniProt O60285); assay: activity of ARK5(h) at 1.0 µM in the Eurofins Kinase panel; settings: Compound concentration 1.0 uM
[5] = biological target: Rho-associated protein kinase 2 (Homo sapiens) (UniProt O75116); assay: activity of ROCK-II(h) at 1.0 µM in the Eurofins Kinase panel; settings: Compound concentration 1.0 uM
[6] = biological target: Ephrin type-A receptor 1 (Homo sapiens) (UniProt P21709); assay: activity of EphA1(h) at 1.0 µM in the Eurofins Kinase panel; settings: Compound concentration 1.0 uM
Aurora kinase A = Aurora kinase A (Homo sapiens, UniProt O14965); assay: Promega NanoBRET (AURKA)
[7] = biological target: Serine/threonine-protein kinase PAK 1 (Homo sapiens) (UniProt Q13153); assay: activity of PAK1(h) at 1.0 µM in the Eurofins Kinase panel; settings: Compound concentration 1.0 uM
[8] = biological target: Vascular endothelial growth factor receptor 1 (Homo sapiens) (UniProt P17948); assay: activity of Flt1(h) at 1.0 µM in the Eurofins Kinase panel; settings: Compound concentration 1.0 uM
[9] = biological target: Mitogen-activated protein kinase 8 (Homo sapiens) (UniProt P45983); assay: activity of JNK1alpha1(h) at 1.0 µM in the Eurofins Kinase panel; settings: Compound concentration 1.0 uM
[10] = biological target: Ribosomal protein S6 kinase alpha-6 (Homo sapiens) (UniProt Q9UK32); assay: activity of Rsk4(h) at 1.0 µM in the Eurofins Kinase panel; settings: Compound concentration 1.0 uM
[11] = biological target: CDK12/Cyclin K (Homo sapiens) (UniProt O75909+Q9NYV4); assay: activity of CDK12/cyclinK(h) at 1.0 µM in the Eurofins Kinase panel; assay type: protein-complex assay; settings: Compound concentration 1.0 uM
[12] = biological target: Rho-associated protein kinase 1 (Homo sapiens) (UniProt Q13464); assay: activity of ROCK-I(h) at 1.0 µM in the Eurofins Kinase panel; settings: Compound concentration 1.0 uM
[13] = biological target: Dual specificity mitogen-activated protein kinase kinase 3 (Homo sapiens) (UniProt P46734); assay: activity of MKK3(h) at 1.0 µM in the Eurofins Kinase panel; settings: Compound concentration 1.0 uM
[14] = biological target: RAC-beta serine/threonine-protein kinase (Homo sapiens) (UniProt P31751); assay: activity of PKBbeta(h) at 1.0 µM in the Eurofins Kinase panel; settings: Compound concentration 1.0 uM
[15] = biological target: SNF-related serine/threonine-protein kinase (Homo sapiens) (UniProt Q9NRH2); assay: activity of SNRK(h) at 1.0 µM in the Eurofins Kinase panel; settings: Compound concentration 1.0 uM
[16] = biological target: Discoidin domain-containing receptor 2 (Homo sapiens) (UniProt Q16832); assay: activity of DDR2(h) at 1.0 µM in the Eurofins Kinase panel; settings: Compound concentration 1.0 uM
[17] = biological target: Dual specificity mitogen-activated protein kinase kinase 1 (Homo sapiens) (UniProt Q02750); assay: activity of MEK1(h) at 1.0 µM in the Eurofins Kinase panel; settings: Compound concentration 1.0 uM
[18] = biological target: Tyrosine-protein kinase Fer (Homo sapiens) (UniProt P16591); assay: activity of Fer(h) at 1.0 µM in the Eurofins Kinase panel; settings: Compound concentration 1.0 uM
[19] = biological target: Serine/threonine-protein kinase 38 (Homo sapiens) (UniProt Q15208); assay: activity of NDR1(h) at 1.0 µM in the Eurofins Kinase panel; settings: Compound concentration 1.0 uM
[20] = biological target: High affinity nerve growth factor receptor (Homo sapiens) (UniProt P04629); assay: activity of TrkA(h) at 1.0 µM in the Eurofins Kinase panel; settings: Compound concentration 1.0 uM
[21] = biological target: Cytoplasmic tyrosine-protein kinase BMX (Homo sapiens) (UniProt P51813); assay: activity of Bmx(h) at 1.0 µM in the Eurofins Kinase panel; settings: Compound concentration 1.0 uM
[22] = biological target: Serine/threonine-protein kinase SIK2 (Homo sapiens) (UniProt Q9H0K1); assay: activity of SIK2(h) at 1.0 µM in the Eurofins Kinase panel; settings: Compound concentration 1.0 uM
[23] = biological target: Serine/threonine-protein kinase WNK1 (Homo sapiens) (UniProt Q9H4A3); assay: activity of WNK1(h) at 1.0 µM in the Eurofins Kinase panel; settings: Compound concentration 1.0 uM

Sequence of Cytoplasmic tyrosine-protein kinase BMX (Homo sapiens) (P51813 whole entry): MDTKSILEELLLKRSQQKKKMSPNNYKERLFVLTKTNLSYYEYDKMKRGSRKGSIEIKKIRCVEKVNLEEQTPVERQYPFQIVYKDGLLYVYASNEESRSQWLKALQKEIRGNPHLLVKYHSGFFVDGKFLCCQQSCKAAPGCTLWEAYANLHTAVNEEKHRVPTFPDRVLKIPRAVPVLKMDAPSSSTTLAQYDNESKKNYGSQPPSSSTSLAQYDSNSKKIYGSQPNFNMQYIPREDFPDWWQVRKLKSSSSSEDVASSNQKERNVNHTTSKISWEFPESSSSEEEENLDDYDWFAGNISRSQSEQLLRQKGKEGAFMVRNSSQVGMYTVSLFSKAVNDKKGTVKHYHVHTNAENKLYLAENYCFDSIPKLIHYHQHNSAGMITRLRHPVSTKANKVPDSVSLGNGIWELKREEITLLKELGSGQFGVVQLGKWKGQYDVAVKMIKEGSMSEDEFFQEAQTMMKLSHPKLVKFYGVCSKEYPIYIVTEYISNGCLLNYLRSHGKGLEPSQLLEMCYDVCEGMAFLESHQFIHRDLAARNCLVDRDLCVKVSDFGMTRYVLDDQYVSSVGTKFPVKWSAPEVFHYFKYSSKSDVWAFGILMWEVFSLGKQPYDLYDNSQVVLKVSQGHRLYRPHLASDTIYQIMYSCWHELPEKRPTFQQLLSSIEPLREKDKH
Sequence of Ribosomal protein S6 kinase alpha-6 (Homo sapiens) (Q9UK32 whole entry): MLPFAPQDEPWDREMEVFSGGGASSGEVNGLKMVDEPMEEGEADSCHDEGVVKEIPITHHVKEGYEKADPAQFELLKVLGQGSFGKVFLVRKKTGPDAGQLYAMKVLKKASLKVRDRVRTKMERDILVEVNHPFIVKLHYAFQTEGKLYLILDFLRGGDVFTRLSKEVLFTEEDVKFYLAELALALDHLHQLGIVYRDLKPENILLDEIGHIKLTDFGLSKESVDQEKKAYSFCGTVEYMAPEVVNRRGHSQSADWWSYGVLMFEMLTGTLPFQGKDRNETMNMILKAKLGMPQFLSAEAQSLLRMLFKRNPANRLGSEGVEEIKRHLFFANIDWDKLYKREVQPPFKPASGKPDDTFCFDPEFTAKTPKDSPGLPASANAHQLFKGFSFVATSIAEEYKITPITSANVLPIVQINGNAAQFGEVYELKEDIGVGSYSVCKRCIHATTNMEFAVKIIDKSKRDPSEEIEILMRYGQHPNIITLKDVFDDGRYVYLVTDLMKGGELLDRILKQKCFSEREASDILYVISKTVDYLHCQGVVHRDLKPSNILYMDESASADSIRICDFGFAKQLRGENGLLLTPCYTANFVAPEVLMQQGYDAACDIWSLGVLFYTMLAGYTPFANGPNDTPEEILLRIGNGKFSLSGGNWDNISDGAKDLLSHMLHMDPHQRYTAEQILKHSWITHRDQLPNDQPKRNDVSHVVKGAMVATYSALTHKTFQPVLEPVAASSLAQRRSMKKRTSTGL
Sequence of Discoidin domain-containing receptor 2 (Homo sapiens) (Q16832 whole entry, the tested form may be a part): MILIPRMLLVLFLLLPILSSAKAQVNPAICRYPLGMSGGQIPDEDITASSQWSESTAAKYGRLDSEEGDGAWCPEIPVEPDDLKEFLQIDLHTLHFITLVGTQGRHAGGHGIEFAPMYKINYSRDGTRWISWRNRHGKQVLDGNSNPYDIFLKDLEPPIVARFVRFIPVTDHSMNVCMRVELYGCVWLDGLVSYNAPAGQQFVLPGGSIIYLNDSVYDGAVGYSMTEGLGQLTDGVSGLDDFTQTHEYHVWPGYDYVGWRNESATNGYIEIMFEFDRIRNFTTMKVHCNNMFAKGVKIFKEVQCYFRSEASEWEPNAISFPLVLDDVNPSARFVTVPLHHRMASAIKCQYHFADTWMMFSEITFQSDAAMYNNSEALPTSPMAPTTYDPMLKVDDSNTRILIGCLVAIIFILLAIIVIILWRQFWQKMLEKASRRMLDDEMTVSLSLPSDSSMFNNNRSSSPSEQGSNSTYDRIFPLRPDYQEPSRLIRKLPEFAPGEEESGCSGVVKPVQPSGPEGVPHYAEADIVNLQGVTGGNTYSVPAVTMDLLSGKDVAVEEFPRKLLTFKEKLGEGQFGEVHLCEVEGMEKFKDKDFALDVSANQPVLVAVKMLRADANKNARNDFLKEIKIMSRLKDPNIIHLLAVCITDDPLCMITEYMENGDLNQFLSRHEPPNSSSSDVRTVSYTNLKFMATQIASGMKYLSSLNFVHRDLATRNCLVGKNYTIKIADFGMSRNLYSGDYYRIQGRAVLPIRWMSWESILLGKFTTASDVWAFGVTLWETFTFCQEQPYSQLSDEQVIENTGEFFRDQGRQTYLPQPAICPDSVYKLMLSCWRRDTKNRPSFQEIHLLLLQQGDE
Sequence of Aurora kinase A (O14965 whole entry): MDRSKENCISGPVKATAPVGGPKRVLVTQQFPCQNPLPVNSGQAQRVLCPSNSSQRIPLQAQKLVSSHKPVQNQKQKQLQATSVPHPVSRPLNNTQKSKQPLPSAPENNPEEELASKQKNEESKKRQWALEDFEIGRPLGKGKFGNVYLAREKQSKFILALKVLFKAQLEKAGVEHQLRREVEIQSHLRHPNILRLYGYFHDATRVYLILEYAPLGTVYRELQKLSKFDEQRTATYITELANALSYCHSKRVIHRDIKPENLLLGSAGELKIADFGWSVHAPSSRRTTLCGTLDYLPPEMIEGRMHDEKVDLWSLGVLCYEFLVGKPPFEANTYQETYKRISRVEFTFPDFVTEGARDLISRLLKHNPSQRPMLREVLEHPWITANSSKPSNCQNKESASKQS
Sequence of Rho-associated protein kinase 1 (Homo sapiens) (Q13464 2-1354 limits assumed): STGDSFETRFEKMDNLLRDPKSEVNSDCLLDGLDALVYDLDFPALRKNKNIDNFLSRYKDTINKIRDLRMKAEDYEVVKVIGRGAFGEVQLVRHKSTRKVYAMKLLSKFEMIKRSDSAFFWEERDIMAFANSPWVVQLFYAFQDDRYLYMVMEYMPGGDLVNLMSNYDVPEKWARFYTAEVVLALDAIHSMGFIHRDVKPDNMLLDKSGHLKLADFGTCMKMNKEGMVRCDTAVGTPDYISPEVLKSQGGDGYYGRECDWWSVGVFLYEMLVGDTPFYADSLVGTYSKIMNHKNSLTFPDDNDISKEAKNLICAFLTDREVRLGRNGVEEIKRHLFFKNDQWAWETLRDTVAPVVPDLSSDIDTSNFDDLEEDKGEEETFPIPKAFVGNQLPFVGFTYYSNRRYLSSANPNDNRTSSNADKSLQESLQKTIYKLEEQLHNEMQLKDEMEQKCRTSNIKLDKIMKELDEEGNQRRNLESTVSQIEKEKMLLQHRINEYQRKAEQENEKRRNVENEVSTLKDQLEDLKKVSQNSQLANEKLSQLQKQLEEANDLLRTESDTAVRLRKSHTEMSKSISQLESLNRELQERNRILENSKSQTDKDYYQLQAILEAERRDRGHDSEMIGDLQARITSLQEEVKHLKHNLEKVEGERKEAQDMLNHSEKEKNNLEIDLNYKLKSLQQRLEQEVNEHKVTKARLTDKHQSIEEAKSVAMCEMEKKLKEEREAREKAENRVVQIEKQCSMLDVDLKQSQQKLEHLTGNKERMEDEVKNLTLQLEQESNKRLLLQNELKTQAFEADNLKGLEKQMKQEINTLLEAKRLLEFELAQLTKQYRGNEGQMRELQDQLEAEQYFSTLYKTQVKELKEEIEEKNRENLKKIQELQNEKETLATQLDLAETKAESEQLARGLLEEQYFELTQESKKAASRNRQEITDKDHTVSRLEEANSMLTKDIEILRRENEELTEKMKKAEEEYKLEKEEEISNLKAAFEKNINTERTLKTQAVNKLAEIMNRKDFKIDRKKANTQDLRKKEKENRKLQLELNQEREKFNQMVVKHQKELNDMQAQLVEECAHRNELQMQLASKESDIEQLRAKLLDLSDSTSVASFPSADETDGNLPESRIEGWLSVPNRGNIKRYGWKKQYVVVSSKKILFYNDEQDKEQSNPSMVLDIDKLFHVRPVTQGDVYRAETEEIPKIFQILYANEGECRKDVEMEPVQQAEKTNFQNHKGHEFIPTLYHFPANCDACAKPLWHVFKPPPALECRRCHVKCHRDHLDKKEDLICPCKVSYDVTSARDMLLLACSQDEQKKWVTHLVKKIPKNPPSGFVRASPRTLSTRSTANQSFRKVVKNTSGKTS
Sequence of Serine/threonine-protein kinase 10 (Homo sapiens) (O94804 whole entry, looked up): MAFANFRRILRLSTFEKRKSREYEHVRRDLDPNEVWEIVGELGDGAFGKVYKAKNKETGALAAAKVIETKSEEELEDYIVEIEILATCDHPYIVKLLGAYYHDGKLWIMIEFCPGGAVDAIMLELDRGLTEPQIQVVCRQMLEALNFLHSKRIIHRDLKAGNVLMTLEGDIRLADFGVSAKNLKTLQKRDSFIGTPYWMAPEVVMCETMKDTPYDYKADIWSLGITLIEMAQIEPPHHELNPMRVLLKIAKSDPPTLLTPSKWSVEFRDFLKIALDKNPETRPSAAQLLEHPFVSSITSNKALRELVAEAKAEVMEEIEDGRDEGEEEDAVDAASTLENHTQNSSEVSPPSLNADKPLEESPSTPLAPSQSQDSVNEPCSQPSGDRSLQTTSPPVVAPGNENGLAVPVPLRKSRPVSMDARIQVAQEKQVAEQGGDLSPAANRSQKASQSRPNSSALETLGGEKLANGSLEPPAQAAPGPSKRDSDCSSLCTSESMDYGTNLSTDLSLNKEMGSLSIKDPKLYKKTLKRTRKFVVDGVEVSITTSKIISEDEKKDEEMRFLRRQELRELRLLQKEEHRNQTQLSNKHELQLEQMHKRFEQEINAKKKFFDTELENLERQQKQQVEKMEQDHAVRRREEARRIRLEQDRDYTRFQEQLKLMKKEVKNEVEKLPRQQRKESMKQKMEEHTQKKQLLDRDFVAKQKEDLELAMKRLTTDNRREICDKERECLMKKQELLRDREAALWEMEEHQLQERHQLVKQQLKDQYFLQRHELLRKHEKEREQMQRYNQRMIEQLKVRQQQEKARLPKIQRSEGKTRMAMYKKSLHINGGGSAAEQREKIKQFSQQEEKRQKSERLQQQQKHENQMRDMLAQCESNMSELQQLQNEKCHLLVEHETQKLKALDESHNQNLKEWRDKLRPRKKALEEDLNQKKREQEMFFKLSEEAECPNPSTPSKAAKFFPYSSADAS

- activity [1]: 85%
- activity [2]: 98%
- activity [3]: 96%
- activity (Aurora kinase B): 109%
- activity [4]: 85%
- activity [5]: 96%
- activity [6]: 92%
- IC50 (Aurora kinase A): > 10 µM (not active)
- activity [7]: 95%
- activity [8]: 125%
- activity [9]: 110%
- activity [10]: 101%
- activity [11]: 89%
- activity [12]: 96%
- activity [13]: 97%
- activity [14]: 109%
- activity [15]: 111%
- activity [16]: 85%
- activity [17]: 101%
- activity [18]: 103%
- activity [19]: 100%
- activity [20]: 105%
- activity [21]: 97%
- activity [22]: 109%
- activity [23]: 109%
SMILES: Cc1cc2c(-c3ccc(NC(=O)[C@H](N)CC(C)(C)C)cc3C)ccnc2[nH]1
